The subject of series [1] is primary cortical neuronal cultures. Here is the method: Briefly, cortical tissue from E18-E19 Sprague-Dawley rats was dissociated in Dulbecco's modified Eagle medium (DMEM; Invitrogen, Australia) supplemented with 1.3 mM L-cysteine, 0.9 mM NaHCOa, 10 units/ml papain (Sigma, USA) and 50 units/ml DNase (Sigma) and washed in cold DMEM/10% horse serum. Neurons were resuspended in Neurobasal (Invitrogen) containing 2% B27 supplement (B27; Invitrogen). Before seeding, 96-well sized glass wells (6 mm diameter, ProTech, Australia) or 96-well plastic plates (ProSciTech, Australia) were coated with poly-D-lysine overnight ([…]: 50 mg/mL; 70-150 K, Sigma). […] Neurons were plated to obtain ≈10,000 viable neurons for each well on day in vitro 11-12. […] On day in vitro 4 one third of the culture medium was removed and replaced with fresh Neurobasal/2% B27 containing the mitotic inhibitor, cytosine arabinofuraNOside (1 mM final concentration; Sigma). On day in vitro 8 one half of the culture medium was replaced with Neurobasal/2% B27.
To induce excitotoxicity, 50 μl of Neurobasal/2% B27 containing glutamic acid (200 μM) or kainic acid (400 μM) or NMDA (200 μM) was added to the culture wells (100 μM glutamic acid, 200 μM kainic acid and NMDA 100 μM final concentration). Cultures were incubated at 37° C. in the CO2 incubator for 5 minutes for glutamic acid, 45 minutes for kainic acid and 10 minutes for NMDA exposure, after which time the media was replaced with 100 μl of 50% Neurobasal/2% N2 supplement (Invitrogen) and 50% balanced salt solution (BSS; see below). Cultures were incubated for a further 24 hours at 37° C. in the CO2 incubator. The untreated controls with or without glutamic acid or kainic acid treatment received the same wash steps and media additions.
Following this step, cultures were treated as described above. Untreated controls with or without glutamic acid exposure received the same wash steps and media additions. In addition, a post-glutamic acid exposure CPP treatment (5 μM) experiment was performed for the R9 peptide and the JNKI-1D-TAT control peptide.
For pre-glutamic acid exposure experiments, neurons were exposed to peptide(s) for a 10 minute period, immediately before or 1, 2, 3, 4 or 5 hours prior to glutamic acid exposure. […] At the relevant peptide pre-treatment time, media was removed and replaced with 100 μl of Neurobasal/2%. […] Following 5-minute glutamic acid exposure, neuronal culture wells were treated as described above. For all experiments untreated controls with or without glutamic acid treatment underwent the same incubation steps and media additions.
Heparin (for injection) was obtained from Pfizer (1000 IU/ml). Two different heparin experiments were performed: 1. Peptides were incubated with heparin (20 IU/ml) in Neurobasal/B27 for 5 minutes at room temperature, before addition to culture wells (50 μl) for 15 minutes at 37° C. in the CO2 incubator. Following the incubation period, media in wells was removed and replaced with 100 μl of Neurobasal/2% B27 containing glutamic acid (100 μM), and subsequently treated as described above; 2. Media in wells was replaced with Neurobasal/2% B27 containing heparin (50 μl; 40 IU/ml) and incubated for 5 minutes at 37° C. in the CO2 incubator. After the incubation period, peptides or glutamate receptor blockers (MK801/CNQX) in Neurobasal/2% B27 (50 μl) were added to the culture wells and cultures incubated for a further 10 minutes at 37° C. in the CO2 incubator. Following the incubation period, media in wells was removed and replaced with 100 μl of Neurobasal/2% B27 containing glutamic acid (100 μM), and subsequently treated as described above. For all experiments, non-heparin treated peptide controls with glutamic acid treatment underwent the same incubation steps and media additions.
Twenty-four hours after insult, neuronal cultures were examined by light microscopy for qualitative assessment of neuronal cell viability.

For series [2] the test system is unchanged. The experiment in a line: In vitro ischemia / oxygen-glucose deprivation (OGD) model, neurons. In kind it is cell-based, rat. The settings on record: for neuroprotection when added for 15 minutes after OGD: FIGS. 31, 20, 22, 1 μM and 5 μM in FIG. 31.
Protocol: Establishment of cortical cultures was as previously described (Meloni et al. 2001). Briefly, cortical tissue from E18-E19 Sprague-Dawley rats was dissociated in Dulbecco's modified Eagle medium (DMEM; Invitrogen, Australia) supplemented with 1.3 mM L-cysteine, 0.9 mM NaHCOa, 10 units/ml papain (Sigma, USA) and 50 units/ml DNase (Sigma) and washed in cold DMEM/10% horse serum. Neurons were resuspended in Neurobasal (Invitrogen) containing 2% B27 supplement (B27; Invitrogen). Before seeding, 96-well sized glass wells (6 mm diameter, ProTech, Australia) or 96-well plastic plates (ProSciTech, Australia) were coated with poly-D-lysine overnight (50 ml/well: 50 mg/mL; 70-150 K, Sigma). Excess poly-D-lysine solution was then removed and replaced with Neurobasal (containing 2% B27; 4% fetal bovine serum; 1% horse serum; 62.5 mM glutamate; 25 mM 2-mercaptoethanol; and 30 mg/mL streptomycin and 30 mg/mL penicillin). Neurons were plated to obtain ≈10,000 viable neurons for each well on day in vitro 11-12. Neuronal cultures were maintained in a CO2 incubator (5% CO2, 95% air balance, 98% humidity) at 37° C. On day in vitro 4 one third of the culture medium was removed and replaced with fresh Neurobasal/2% B27 containing the mitotic inhibitor, cytosine arabinofuraNOside (1 mM final concentration; Sigma). On day in vitro 8 one half of the culture medium was replaced with Neurobasal/2% B27. Cultures were used on day in vitro 11 or 12 after which time they routinely consist of >97% neurons and 1-3% astrocytes (Meloni et al. 2001).
The in vitro ischemia model used for primary cortical neuronal cultures was performed as previously described (Meloni et at 2011) Briefly, culture media was removed from wells (glass 96-well plate format) and washed with 315 μl of glucose free balanced salt solution (BSS; mM: 116 NaCl, 5.4 KCl, 1.8 CaCl2, 0.8 MgSO4, 1 NaH2PO4; pH 6.9) before the addition of 60 μl BSS containing cell penetrating or control peptides (see Table 1). A non-peptide positive control consisting of the glutamate receptor blockers (5 μM MK801/5 μM 6-cyano-7-nitroquinoxaline: MK801/CNQX) was also included. In vitro ischemia was initiated by placing wells in an anaerobic incubator (Don Whitely Scientific, England; atmosphere of 5% CO2, 10% H2 and 85% argon, 98% humidity) at 37° C. for 55 minutes. Upon removal from the anaerobic incubator, 60 μl of Neurobasal/2% N2 supplement was added to the wells and cultures incubated for a further 24 hours at 37° C. in the CO2 incubator. Control cultures received the same BSS wash procedures and media additions as ischemic treated cultures before incubation at 37° C. in the CO2 incubator.
Control cultures underwent the same BSS wash procedures and media additions as OGD treated cultures.
Twenty-four hours after insult, neuronal cultures were examined by light microscopy for qualitative assessment of neuronal cell viability. Neuronal viability was quantitatively measured by 3-(4,5,dimethyliazol-2-yl)-5-(3-carboxymethoxy-phenyl)-2-(4-sulfophenyl)-2H-tetrazolium salt (MTS) assay (Promega, Australia). The MTS assay measures the cellular conversion of the tetrazolium salt to a water-soluble brown formazan salt, which is detected spectrophotometrically at 490 nm. MTS absorbance data were converted to reflect proportional cell viability relative to both the untreated and treated controls, with the untreated control taken as 100% viability, and presented as mean±SEM. […] Viability data was analysed by ANOVA, followed by post-hoc Fischer's PLSD test, with P<0.05 values considered statistically significant. Four- to six wells were used in all assays.
Series [3] relates to permanent middle cerebral artery occlusion (MCAO) stroke model. The experiment in a line: Rat permanent middle cerebral artery occlusion (MCAO) stroke model. Format: in vivo. To be noted: 1 μmol/kg intravenously 30 min post-MCAO. Here is the method:
Administration of peptide (DR9: rrrrrrrrr-NH2; R12, R15, R18, protamine sulphate; protamine) or vehicle (saline: 0.9% NaCl) treatment solution was performed at 30 min post-MCAO. The peptide treatment comprised DR9 in saline (600 μl) to provide an intravenous loading dose of 1 μmol/kg or 1000 nmol/kg given over 5-6 min via the right jugular vein.
This study was approved by the Animal Ethics Committee of the University of Western Australia. Male Sprague Dawley rats weighing 270 g to 350 g were kept under controlled housing conditions with 12 hour light-dark cycle with free access to food and water. Experimental animals were fasted overnight and subjected to permanent middle cerebral artery occlusion (MCAO) as follows.
Anaesthesia was induced with 4% isoflurane and a 2:1 mix of N2O and O2 via mask. Anaesthesia was maintained at 1.7-2% isoflurane. Cerebral blood flow (CBF) was monitored continuously using laser Doppler flowmetry (Blood FlowMeter, AD Instruments, Sydney, Australia). The probe was located 1 mm caudal and 4 mm lateral (right) to the bregma. A cannula was inserted in the right femoral artery to continuously monitor blood pressure and to provide samples for blood glucose and blood gas readings. Blood glucose was measured using a glucometer (MediSense Products, Abbott Laboratories, Bedford, Mass., USA) and blood gases were measured using a blood gas analyser (ABL5, Radiometer, Copenhagen, Denmark). Blood pressure was maintained at 80-100 mmHg. During surgery, rectal temperature was maintained at 37±0.5° C. and warming applied with a fan heater when necessary. For intravenous infusions, a length of PVC line primed with heparinised saline was tied in place in the right jugular vein, then externalised through a dorsal mid-scapular incision to a tether/swivel system (Instech Laboratories, Philadelphia, USA) designed to permit free movement.
The right common carotid artery (CCA) was exposed via a ventral neck incision. […] The isolated section of the ECA was ligated and cauterised to create a stump. The carotid body was removed and the pterygopalatine artery was ligated. A 4-0 nylon monofilament with a 0.39 mm diameter silicone tip (Doccol, Redlands, Calif., USA) was inserted through the ECA stump into the CCA and advanced rostrally into the internal carotid artery (ICA) until the laser Doppler flowmetry recorded a >30% decrease from baseline of cerebral blood flow. The monofilament was secured in two places (at the base of the ECA stump and on the ICA) for the remainder of the experiment. Animals were given post-operative analgesia consisting of pethidine (3 mg/kg intramuscular) and bupivacaine (1.5 mg/kg subcutaneously) at head and leg incision sites.
Post-surgery animals were allowed to recover in a climate-controlled chamber and their core body temperature monitored and maintained at 37±0.5° C. by a cooling/heating fan when required for 3-4 hours.
Animals were sacrificed 24 hours post-MCAO with intra-peritoneal injections of sodium pentobarbitone (900 mg/kg). […] Slices were scanned and images were analysed by an operator blind to treatment status using ImageJ 3rd edition (NIH, USA). The total infarct volume was determined by adding the areas of infarcted tissue on both sides of the 2 mm sections. These measured areas were multiplied by half slice thickness (1 mm), and corrected for cerebral oedema by multiplying the ratio of affected to normal hemisphere areas. […]

The subject of series [4] is intracellular calcium influx in neuronal cultures. The experiment in a line: Intracellular calcium influx (Fura-2 AM) after glutamic acid. In kind it is cell-based, rat. To be noted: peptide 5 μM for 10 min, removed before 100 μM glutamic acid (FIG. 44).
Protocol: Fura-2 AM was used for intracellular calcium assessment. Representative fluorescent Fura-2 AM tracers; fluorescence intensity (FI) of neuronal cultures 30 sec before and following addition (arrow) of glutamic acid (100 μM final concentration). Peptides or glutamate receptor blockers were added to neuronal cultures for 10 min and removed (time 0) before glutamic acid. Values are mean±SE; n=3. Peptide concentration was 5 μM.
Briefly, cortical tissue from E18-E19 Sprague-Dawley rats was dissociated in Dulbecco's modified Eagle medium (DMEM; Invitrogen, Australia) supplemented with 1.3 mM L-cysteine, 0.9 mM NaHCOa, 10 units/ml papain (Sigma, USA) and 50 units/ml DNase (Sigma) and washed in cold DMEM/10% horse serum. Neurons were resuspended in Neurobasal (Invitrogen) containing 2% B27 supplement (B27; Invitrogen). Before seeding, 96-well sized glass wells (6 mm diameter, ProTech, Australia) or 96-well plastic plates (ProSciTech, Australia) were coated with poly-D-lysine overnight (50 ml/well: 50 mg/mL; 70-150 K, Sigma). Excess poly-D-lysine solution was then removed and replaced with Neurobasal (containing 2% B27; 4% fetal bovine serum; 1% horse serum; 62.5 mM glutamate; 25 mM 2-mercaptoethanol; and 30 mg/mL streptomycin and 30 mg/mL penicillin). Neurons were plated to obtain ≈10,000 viable neurons for each well on day in vitro 11-12. Neuronal cultures were maintained in a CO2 incubator (5% CO2, 95% air balance, 98% humidity) at 37° C. On day in vitro 4 one third of the culture medium was removed and replaced with fresh Neurobasal/2% B27 containing the mitotic inhibitor, cytosine arabinofuraNOside (1 mM final concentration; Sigma). On day in vitro 8 one half of the culture medium was replaced with Neurobasal/2% B27. Cultures were used on day in vitro 11 or 12 after which time they routinely consist of >97% neurons and 1-3% astrocytes (Meloni et al. 2001).
In series [5] the test system is brain endothelial cells (bEND3 cells). The experiment in a line: In vitro ischemia/OGD model, bEND3 cells. To be noted: peptide during/after ischemia (FIG. 3c) or 15 min before OGD (FIGS. 23, 24). Format: cell-based.
Protocol: The in vitro ischemia model was also used for bEND3 cells, SH-SY5Y cells, and astrocytes. For bEND3 cells anaerobic incubation was extended to 2-3 hours and upon removal from the anaerobic incubator, 60 μl of DMEM/2% FCS was added to wells. […] Upon removal from the anaerobic incubator, 60 μl of DMEM/2% FCS was added to wells.
Twenty-four hours after insult, neuronal cultures were examined by light microscopy for qualitative assessment of neuronal cell viability. Neuronal viability was quantitatively measured by 3-(4,5,dimethyliazol-2-yl)-5-(3-carboxymethoxy-phenyl)-2-(4-sulfophenyl)-2H-tetrazolium salt (MTS) assay (Promega, Australia). The MTS assay measures the cellular conversion of the tetrazolium salt to a water-soluble brown formazan salt, which is detected spectrophotometrically at 490 nm. MTS absorbance data were converted to reflect proportional cell viability relative to both the untreated and treated controls, with the untreated control taken as 100% viability, and presented as mean±SEM. For studies using astrocytes, bEND3, and SH-Y5Y cells, raw MTS data was used to generate graphs. Viability data was analysed by ANOVA, followed by post-hoc Fischer's PLSD test, with P<0.05 values considered statistically significant. Four- to six wells were used in all assays.
A further series deals with primary rat astrocytes. In words: Astrocyte toxicity model. Format: cell-based. To be noted: 2.5 to 10 μM, 24 hour exposure (FIG. 43). As for the experimental part:
A brain endothelial cell line (bEND3) and a neuroblastoma cell line (SH-SY5Y) were also used for some experiments. bEND3 and SH-SY5Y cells were cultured using standard techniques in DMEM plus 5 or 15% foetal calf serum. Rat primary astrocytes were obtained and cultured as described for cortical neurons except DMEM plus 10% foetal calf serum was used instead of Neurobasal/2% B27, and the mitotic inhibitor, cytosine arabinofuraNOside was not used.
For neuronal cultures peptides were added to culture wells (96-well plate format) by removing media and adding 100 μl of 50% Neurobasal/2% N2 supplement and 50% BSS containing CPPs, JNKI-1 D-TAT or TAT-NR2B9c. Control cultures received of 50% Neurobasal/2% N2 supplement and 50% BSS media only. Cultures were incubation at 37° C. in the CO2 incubator for 20 hours, after which time cell viability was assessed using the MTS assay. For bEND3 cultures, peptides were added to culture wells (96-well plate format) by removing media and adding 100 μl of DMEM/2% FCS containing peptide. Control cultures received 100 μl of DMEM/2% FCS only, Cultures were incubation at 37° C. in the CO2 incubator for 0.5, 1 or 2 hours, after which time cell viability was assessed using the MTS assay. […] Cultures were incubation at 37° C. in the CO2 incubator for 24 hours, after which time cell viability was assessed using the MTS assay.
Twenty-four hours after insult, neuronal cultures were examined by light microscopy for qualitative assessment of neuronal cell viability. Neuronal viability was quantitatively measured by 3-(4,5,dimethyliazol-2-yl)-5-(3-carboxymethoxy-phenyl)-2-(4-sulfophenyl)-2H-tetrazolium salt (MTS) assay (Promega, Australia). The MTS assay measures the cellular conversion of the tetrazolium salt to a water-soluble brown formazan salt, which is detected spectrophotometrically at 490 nm. MTS absorbance data were converted to reflect proportional cell viability relative to both the untreated and treated controls, with the untreated control taken as 100% viability, and presented as mean±SEM. […]

“Also recorded” adds a separate entry of the source. Ends that are not written are not given here.

Turning to `N=C(N)NCCC[C@H](NC(=O)[C@H](CCCNC(=N)N)NC(=O)[C@H](CCCNC(=N)N)NC(=O)[C@H](CCCNC(=N)N)NC(=O)[C@H](CCCNC(=N)N)NC(=O)[C@H](CCCNC(=N)N)NC(=O)[C@H](CCCNC(=N)N)NC(=O)[C@H](CCCNC(=N)N)NC(=O)[C@H](CCCNC(=N)N)NC(=O)[C@H](CCCNC(=N)N)NC(=O)[C@H](CCCNC(=N)N)NC(=O)[C@@H](N)CCCNC(=N)N)C(=O)O` [Peptide R12], in series [1] (0 min post-insult (FIG. 1d)), the “neuroprotection when added immediately after glutamic acid exposure” value was “highly effective”. The “neuroprotection, milder insult” value in series [1] (FIG. 1i, comparison at 0.5 μM and 1 μM) was “more effective than R9”. For the same compound, the “neuroprotection, peptide present during the 5 minute glutamic acid insult only” value in series [1] (FIG. 28) was “effective”. Further, the “neuroprotection, 10 minute pre-exposure removed immediately prior to insult” value in series [1] (FIG. 29, FIG. 14) is given as “effective”. Further, the “neuroprotection, peptide for 10 minutes, 1 to 4 hours prior to glutamic acid insult” value in series [1] (FIG. 30) is given as “effective”. Besides, in series [1] (heparin 20 IU/ml with peptide or 40 IU/ml on cultures (FIGS. 39, 40)), the “effect of heparin on neuroprotective action” value is given as “blocks neuroprotective actions”. Besides, the IC50 (commonly the midpoint of a concentration-inhibition curve) in series [1] (read-out: IC50: Glutamic acid model, Table 4, polyarginine peptides, from dose response graph FIG. 1e) was 440 nM. Further, in series [2] (FIG. 32), the “neuroprotection, peptide for 10 minutes, 1 to 3 hours prior to OGD” value is given as “effective”. Further, the “neuroprotection when added for 15 minutes after OGD” value in series [2] is given as “Neuroprotection is displayed”. Further, the “neuroprotection when added post-in vitro ischemia/OGD” value in series [2] (added after anaerobic incubation until experiment end (FIGS. 3b, 16, 17)) is “displayed neuroprotective effects; also recorded: effective”. Further, the “neuroprotective activity in vivo” value in series [3] is recorded as “possessed neuroprotective activity in vivo”. Also, the “calcium influx after glutamic acid” value in series [4] was “to varying degrees reduced calcium influx”.

Take PRRRRASRRIRRRRRPRVSRRRRRGGRRRR [Ptm4]: in series [1] (peptide 15 min prior to and during glutamic acid exposure, viability 24 h, MTS), the “neuroprotection (neuronal viability)” value was “neuroprotective”. The “neuroprotection when added for 15 minutes after OGD” value in series [2] is given as “neuroprotective”. Besides, the “neuroprotection in the OGD model (overall statement)” value in series [2] (discussion summary) is listed as “neuroprotective”. Moreover, the figures for the “protection of bEND3 cells (cell death / viability after in vitro ischemia/OGD)” value in series [5] and in series [5] (listed as ptm4) were “significantly increased cell viability” and “protective”, respectively.

As to PRRRRRSSSRPIRRRRRPRASRRRRRGGRRRR [Ptm1], the “astrocyte cell death following peptide exposure” value in the series on primary rat astrocytes is on record as “did not cause significant astrocyte cell death”.

As to PRRRRSSSRPVRRRRRPRVSRRRRRRGGRRRR [Ptm5], in the series on primary rat astrocytes, the “astrocyte cell death following peptide exposure” value was “did not cause significant astrocyte cell death”.

Turning to VSRRRRRRGGRRRR [LMWP], the “astrocyte cell death following peptide exposure” value with primary rat astrocytes is “did not cause significant astrocyte cell death”.

(Values after patent US20160250285A1, “NEUROPROTECTIVE PEPTIDES” (priority 2013, published 2016).)
